In the experiment the test system is HIV-1 LAI. The experiment in a line: microbe, parasite or virus in culture. Particulars: for EC50: Human immunodeficiency virus 1, MT2, 120 h; for Combination Indices at % HIV Inhibition (Confidence Interval) 50%: 50% HIV inhibition; for Combination Indices at % HIV Inhibition (Confidence Interval) 50% / Combination Indices at % HIV Inhibition (Confidence Interval) 75% / Combination Indices at % HIV Inhibition (Confidence Interval) 90%: 95% CI in parenthesis; for Combination Indices at % HIV Inhibition (Confidence Interval) 75%: 75% HIV inhibition; for Combination Indices at % HIV Inhibition (Confidence Interval) 90%: 90% HIV inhibition; for Overall Result: two-drug combination with Compound 1, all ratios and effect levels, MT-2/HIV-1 LAI, RT assay. The method, then:
Virus and cell lines. The T-cell lines, MT-2 and PM-1 were obtained through the AIDS Research and Reference Reagent Program, NIAID, and were contributed by Dr. D. Richman and Dr. R. Gallo, respectively. Both cell lines were cultured in RPMI 1640 medium supplemented with 10% fetal bovine serum, 2 mM L-glutamine and sub-cultured twice a week. The LAI strain of HIV-1 was obtained from the Fred Hutchinson Cancer Research Center, and the Bal strain was from NIH. Both virus stocks were amplified and titered in MT-2 cells (LAI) and PM-1 cells (Bal) using a virus infectivity assay.
Drug Susceptibility and Cytotoxicity Assays. For drug susceptibility assays, MT-2 cells were infected with HIV-1 LAI (or PM-1 cells with HIV-1 Bal) at an MOI of 0.005, and seeded into 96-well microtiter plates (0.1×10^6 cells/ml) containing serial dilutions of test compounds. […] Each drug ratio consisted of an array of 3-fold serial dilutions, and was performed in quadruplicate. The plates were incubated at 37° C./5% CO2. The MT-2 cells infected with HIV-1 LAI were incubated for 5 days. On day-five post-infection, 20 μl from each well was harvested and quantitated by a reverse transcriptase (RT) assay, or in samples involving non-nucleoside RT inhibitors, an MTS assay. The PM-1 cells infected with HIV-1 Bal and used for studying the combinations with CCR5 inhibitors were incubated for six days. On day-six post-infection, 20 μl from each well was harvested, 20- and 50-fold diluted and quantitated by p24 assay. Cytotoxicity assays were performed using uninfected cells, exposed to the same drug combinations, and incubated for six days. Cell viability was determined by an XTT assay. The CC50 values were calculated by using the exponential form of the median effect equation as mentioned below for calculation of EC50.
Analysis of Drug Combination Effects. For determination of CI values, drugs were diluted in a fixed ratio and multiple ratios were analyzed. The drug serial dilutions spanned a range of concentrations near the EC50 value of each compound, so that equivalent antiviral activities could be compared. Concentration-response curves were estimated for each individual drug and every combination using the median-effect equation. The equation was fit using a nonlinear regression routine (Proc Nlin) in PC SAS version 8.01 (SAS Institute Inc., SAS Version 8.01, Cary, N.C.: SAS Institute Inc., 1990).
In this equation, Fa stands for “fraction affected,” and represents the fraction of the viral load that has been inactivated. […] ED50 is drug concentration that is expected to reduce the amount of virus by 50%, and m is a parameter that reflects the slope of the concentration-response curve.
To assess antiviral effects of different drug combination treatments, combination indices (CIs) were calculated according to Chou and Rideout. The combination index was computed as CI=[D]1/[Dm]1+[D]2/[Dm]2
In this equation [Dm]1 and [Dm]2 are the concentrations of drugs that would individually produce a specific level of effect, while [D]1 and [D]2 are the concentrations of drugs in combination that would produce the same level of effect.
Theoretically, additivity is implied if the CI is equal to one, synergy if the CI is less than one, and antagonism if the CI is greater than one. […] At best, we can construct a range that contains the likely values for the CI, given the noise in the data. In this report, these ranges are reported in parentheses next to each point estimate of the CI. […] If the range fell entirely above 1.0, we would infer antagonistic behavior. If the range were to include 1.0, we would infer additivity.
In carrying out the combination experiments below, the EC50 for Compound 1 and each comparator compound was determined during the course of each study, and used in the subsequent data analysis.

[1] abbreviates: combination with Compound 1, EC50 ratio 1:1 (Compound 1:comparator).
[2] abbreviates: combination with Compound 1, EC50 ratio 1:1.
[3] abbreviates: combination with Compound 1, EC50 ratio 1:2.5.
The mark [4] stands for this setting: combination with Compound 1, EC50 ratio 2.5:1.

The values below come from patent US20050215543A1, “Methods of treating HIV infection” (priority 2004, published 2005).

With `Nc1nc(=O)n([C@@H]2CS[C@H](CO)O2)cc1F` [Emtricitabine, emtricitabine], the 50% effective concentration (EC50) (commonly the concentration that produces a half-maximal response) was determined as 34 nM and the “Overall Result” value was “Synergistic”. For the same molecule, the “Combination Indices at % HIV Inhibition (Confidence Interval) 50%” value under setting [1] is 0.57 (0.49, 0.64). Further, under setting [2], the “Combination Indices at % HIV Inhibition (Confidence Interval) 75%” value was 0.33 (0.27, 0.39) and the “Combination Indices at % HIV Inhibition (Confidence Interval) 90%” value is 0.19 (0.14, 0.24). For the same molecule, under setting [3], the “Combination Indices at % HIV Inhibition (Confidence Interval) 50%” value is 0.38 (0.31, 0.45); the “Combination Indices at % HIV Inhibition (Confidence Interval) 75%” value was 0.48 (0.36, 0.60); the “Combination Indices at % HIV Inhibition (Confidence Interval) 90%” value was 0.60 (0.36, 0.84). Moreover, under setting [4], the “Combination Indices at % HIV Inhibition (Confidence Interval) 50%” value was 0.17 (0.15, 0.19); the “Combination Indices at % HIV Inhibition (Confidence Interval) 75%” value is listed as 0.21 (0.17, 0.25); the “Combination Indices at % HIV Inhibition (Confidence Interval) 90%” value is listed as 0.26 (0.18, 0.34). The “Overall Result” value (listed as emtricitabine) is “consistent synergy at all effective levels and concentration ratios”.

Regarding `CC(C)(C)NC(=O)[C@@H]1CN(Cc2cccnc2)CCN1C[C@@H](O)C[C@@H](Cc1ccccc1)C(=O)N[C@H]1c2ccccc2C[C@H]1O` [Indinavir, indinavir], the 50% effective concentration (EC50) is 0.7 nM and the “Overall Result” value is reported as “Synergistic”. Besides, the “Combination Indices at % HIV Inhibition (Confidence Interval) 50%” value under setting [1] is 0.55 (0.46, 0.64). Under setting [2], the “Combination Indices at % HIV Inhibition (Confidence Interval) 75%” value is recorded as 0.57 (0.45, 0.70) and the “Combination Indices at % HIV Inhibition (Confidence Interval) 90%” value is 0.61 (0.39, 0.83). Moreover, under setting [3], the “Combination Indices at % HIV Inhibition (Confidence Interval) 50%” value is given as 0.35 (0.24, 0.47); the “Combination Indices at % HIV Inhibition (Confidence Interval) 75%” value is 0.21 (0.17, 0.24); the “Combination Indices at % HIV Inhibition (Confidence Interval) 90%” value is on record as 0.32 (0.20, 0.43). Under setting [4], the “Combination Indices at % HIV Inhibition (Confidence Interval) 50%” value was 0.31 (0.22, 0.40); the “Combination Indices at % HIV Inhibition (Confidence Interval) 75%” value is listed as 0.41 (0.27, 0.55); the “Combination Indices at % HIV Inhibition (Confidence Interval) 90%” value is given as 0.54 (0.20, 0.87). Moreover, the “Overall Result” value (listed as indinavir) is “strong synergistic effects”.

On to `Nc1ccn([C@@H]2CS[C@H](CO)O2)c(=O)n1` [Lamivudine, lamivudine], for which the EC50 is 140 nM. Under setting [1], the “Combination Indices at % HIV Inhibition (Confidence Interval) 50%” value is recorded as 1.02 (0.80, 1.23). Besides, under setting [2], the “Combination Indices at % HIV Inhibition (Confidence Interval) 75%” value is given as 0.59 (0.42, 0.76) and the “Combination Indices at % HIV Inhibition (Confidence Interval) 90%” value is 0.37 (0.21, 0.53). Besides, under setting [3], the “Combination Indices at % HIV Inhibition (Confidence Interval) 50%” value is 0.89 (0.76, 1.02); the “Combination Indices at % HIV Inhibition (Confidence Interval) 75%” value was 0.41 (0.34, 0.47); the “Combination Indices at % HIV Inhibition (Confidence Interval) 90%” value is 0.20 (0.15, 0.24). Also, under setting [4], the “Combination Indices at % HIV Inhibition (Confidence Interval) 50%” value is 1.07 (0.95, 1.20); the “Combination Indices at % HIV Inhibition (Confidence Interval) 75%” value is listed as 0.71 (0.58, 0.83); the “Combination Indices at % HIV Inhibition (Confidence Interval) 90%” value is 0.50 (0.36, 0.65).

As for `Cc1cccc(C)c1OCC(=O)N[C@@H](Cc1ccccc1)[C@@H](O)C[C@H](Cc1ccccc1)NC(=O)[C@H](C(C)C)N1CCCNC1=O` [Lopinavir, lopinavir], the EC50 was 1 nM and the “Overall Result” value is on record as “Synergistic”. In addition, the “Combination Indices at % HIV Inhibition (Confidence Interval) 50%” value under setting [1] is given as 0.23 (0.16, 0.42). Under setting [2], the “Combination Indices at % HIV Inhibition (Confidence Interval) 75%” value is recorded as 0.22 (0.14, 0.30) and the “Combination Indices at % HIV Inhibition (Confidence Interval) 90%” value is reported as 0.26 (0.09, 0.44). Besides, under setting [3], the “Combination Indices at % HIV Inhibition (Confidence Interval) 50%” value is reported as 0.13 (0.08, 0.18); the “Combination Indices at % HIV Inhibition (Confidence Interval) 75%” value is listed as 0.06 (0.05, 0.08); the “Combination Indices at % HIV Inhibition (Confidence Interval) 90%” value was 0.03 (0.02, 0.05). Further, under setting [4], the “Combination Indices at % HIV Inhibition (Confidence Interval) 50%” value is reported as 1.13 (0.73, 1.52); the “Combination Indices at % HIV Inhibition (Confidence Interval) 75%” value is on record as 0.50 (0.26, 0.74); the “Combination Indices at % HIV Inhibition (Confidence Interval) 90%” value is given as 0.30 (0.07, 0.52). For the same molecule, under “listed as lopinavir”, the “Overall Result” value is “strong synergistic effects”.

Take `Cc1c(O)cccc1C(=O)N[C@@H](CSc1ccccc1)[C@H](O)CN1C[C@H]2CCCC[C@H]2C[C@H]1C(=O)NC(C)(C)C` [Nelfinavir, nelfinavir]: the EC50 amounted to 22 nM and the “Overall Result” value was “Moderate”. In addition, the “Combination Indices at % HIV Inhibition (Confidence Interval) 50%” value under setting [1] is 0.66 (0.60, 0.73). For the same molecule, under setting [2], the “Combination Indices at % HIV Inhibition (Confidence Interval) 75%” value is 0.78 (0.67, 0.88) and the “Combination Indices at % HIV Inhibition (Confidence Interval) 90%” value is on record as 0.91 (0.71, 1.10). Besides, under setting [3], the “Combination Indices at % HIV Inhibition (Confidence Interval) 50%” value was 0.29 (0.31, 0.46); the “Combination Indices at % HIV Inhibition (Confidence Interval) 75%” value is given as 0.62 (0.45, 0.79); the “Combination Indices at % HIV Inhibition (Confidence Interval) 90%” value was 0.99 (0.57, 1.41). Further, under setting [4], the “Combination Indices at % HIV Inhibition (Confidence Interval) 50%” value is 0.77 (0.69, 0.86); the “Combination Indices at % HIV Inhibition (Confidence Interval) 75%” value is recorded as 0.69 (0.62, 0.77); the “Combination Indices at % HIV Inhibition (Confidence Interval) 90%” value is on record as 0.62 (0.49, 0.75). The “Overall Result” value (listed as nelfinavir) was “moderate synergy”.

As to `CC(C)(C)NC(=O)[C@@H]1C[C@@H]2CCCC[C@@H]2CN1C[C@@H](O)[C@H](Cc1ccccc1)NC(=O)[C@H](CC(N)=O)NC(=O)c1ccc2ccccc2n1` [Saquinavir, saquinavir], the EC50 worked out at 9 nM and the “Overall Result” value is reported as “Additive-”. The “Combination Indices at % HIV Inhibition (Confidence Interval) 50%” value under setting [1] is 0.97 (0.88, 1.07). Under setting [2], the “Combination Indices at % HIV Inhibition (Confidence Interval) 75%” value is reported as 0.92 (0.76, 1.07) and the “Combination Indices at % HIV Inhibition (Confidence Interval) 90%” value is given as 0.87 (0.65, 1.09). Further, under setting [3], the “Combination Indices at % HIV Inhibition (Confidence Interval) 50%” value was 0.22 (0.20, 0.24); the “Combination Indices at % HIV Inhibition (Confidence Interval) 75%” value is reported as 0.26 (0.22, 0.29); the “Combination Indices at % HIV Inhibition (Confidence Interval) 90%” value was 0.29 (0.24, 0.35). Also, under setting [4], the “Combination Indices at % HIV Inhibition (Confidence Interval) 50%” value was 1.07 (0.95, 1.20); the “Combination Indices at % HIV Inhibition (Confidence Interval) 75%” value is 0.92 (0.74, 1.10); the “Combination Indices at % HIV Inhibition (Confidence Interval) 90%” value was 0.80 (0.45, 1.14). In addition, for the setting “listed as saquinavir”, the “Overall Result” value is given as “additive to synergistic”.
